According to patent US20190225650A1, “PEPTIDOMIMETIC MACROCYCLES AND USE THEREOF IN REGULATING HIF1ALPHA” (AILERON THERAPEUTICS, INC., priority 2013, published 2019):
Bridge positions count the residues as written; N and C are the ends. Square brackets hold non-standard residues; d marks the D form. Peptide text beside a SMILES is read from it. R8 = C=CCCCCCC[C@@](C)(N)C(=O)O; S5 = C=CCCC[C@](C)(N)C(=O)O; Nle = CCCC[C@H](N)C(=O)O

Tests used:
[1] = molecular target: T1, flag-tagged HIF1α (AA 786-826) / His6-tagged p300 (AA 323-423) complex (Homo sapiens, UniProt Q09472); experiment: HIF1α p300 displacement assay (TR FRET, +CHAPS); format: binding; conditions: read-out: IC50 (nM) (HIF1α_p300 Displacement + CHAPS)
T1 construct: His6-tagged p300 (AA 323-423); made in house; host or cells: E. coli (pETDuet vector)
T1 sequence (Q09472 323-423, one chain of several): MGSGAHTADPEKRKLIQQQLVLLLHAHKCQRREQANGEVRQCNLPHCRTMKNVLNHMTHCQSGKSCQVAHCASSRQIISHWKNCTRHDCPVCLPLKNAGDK
In short: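 In this TR-FRET displacement format, peptides compete HIF1α C-terminal transactivation domain off p300-CH. They were preincubated 1 h at room temperature with 300 nM complex in HEPES pH 7.4/NaCl buffer with 7.5 mM CHAPS and 1 mM DTT. Anti-His-D2 (4 nM) and anti-Flag-K (0.5 μM) followed for 2 h, and a one-site fit of the fluorescence ratio gave IC50.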

[2] = system: HRE-bla ME-180 cells; experiment: Reporter gene assay (HRE-bla ME-180 HIF reporter, GeneBLAzer); format: cell-based, human; conditions: for EC50: 24 hour normoxia
In short: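 A FRET β-lactamase readout of HIF transcription was used. After compound treatment in 0.3% DMSO/media under normoxic conditions, 20 μl of 6× LiveBLAzer-FRET B/G (CCF4-AM) substrate was added. Plates sat 3 hr at room temperature in the dark and were read at 409 Ex/460Em and 409Ex/530Em on a Synergy 2. Inhibition was compared against DMSO vehicle controls, with chetomin as positive control.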

[3] = system: HRE-bla ME-180 cells; experiment: Cell proliferation assay (viability, MTT, 1% FBS); format: cell-based, human
In short: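 Viable cell number was measured with the CellTiter 96 (MTT) kit after compounds were applied for a 16 h normoxic (21% O2) pretreatment, followed by further normoxic or hypoxic (1% O2) culture. Cells: 2×10^4 ME-180 per well, Opti-MEM + 1% FBS, 0.5% DMSO vehicle.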

Compound	IC50 [1] [nM]	EC50 [2] [µM]	18 h Avg % max inhibition at top conc (HIF Rptr-24 hrs normoxia) (μM) [2]	Viability 1% FBS AVG (MTT V3-24 hr Normoxia) (μM) [3]
CCCC[C@H](NC(=O)[C@H](Cc1ccccc1)NC(=O)[C@@H](NC(=O)[C@H](C)NC(=O)[C@H](CCC(N)=O)NC(=O)[C@H](CC(=O)O)NC(=O)[C@@H](NC(=O)[C@H](Cc1ccccc1)NC(C)=O)[C@@H](C)CC)C(C)C)C(=O)N[C@@]1(C)CCCC=CCCC[C@@](C)(C(=O)N[C@@H](Cc2c[nH]cn2)C(=O)N[C@@H](C)C(=O)N[C@@H](CC(C)C)C(=O)N[C@@H](CC(C)C)C(N)=O)NC(=O)[C@H]([C@@H](C)CC)NC(=O)[C@H](C(C)C)NC(=O)[C@H](CC(N)=O)NC1=O [SP-259] (Ac-FIDQAVF[Nle][S5]NVI[S5]HALL-NH2; staple 9-13)	> 700	≤ 5	++++ (≥50: ++++)	+ (<5: +)
CCCC[C@H](NC(=O)[C@H](CC(C)C)NC(=O)[C@@H](NC(=O)[C@H](CCC(=O)O)NC(=O)[C@H](CCC(=O)O)NC(=O)[C@H](CC(=O)O)NC(=O)[C@@H](NC(=O)[C@H](CC(N)=O)NC(=O)[C@@H](NC(=O)[C@]1(C)CCCC=CCCCCCC[C@@](C)(NC(=O)[C@H](CCC(=O)O)NC(=O)CNC(=O)[C@H](CCC(N)=O)NC(=O)[C@H](CC(C)C)NC(=O)[C@H](CC(C)C)NC(C)=O)C(=O)N[C@@H](CC(C)C)C(=O)N[C@@H](CC(C)C)C(=O)N[C@@H](CCCNC(=N)N)C(=O)N[C@@H](C)C(=O)N[C@@H](CC(C)C)C(=O)N[C@@H](CC(=O)O)C(=O)N1)C(C)C)[C@@H](C)CC)C(C)C)C(=O)N[C@@]1(C)CCCC=CCCC[C@@](C)(C(=O)N[C@@H](CCCC)C(=O)NCC(N)=O)NC(=O)[C@H]([C@@H](C)CC)NC(=O)[C@H](C(C)C)NC(=O)[C@H](CC(C)C)NC1=O [SP-309] (Ac-LLQGE[R8]LLRALD[S5]VNIDEEVL[Nle][S5]LVI[S5][Nle]G-NH2; staple 6-13, 23-27)	200 to 400	> 30	+ (<10: +)	++++ (≥30: ++++)
CCCC[C@@H]1NC(=O)[C@H](CC(C)C)NC(=O)[C@](C)(NC(=O)[C@H](CCC(=O)O)NC(=O)[C@H](CCC(=O)O)NC(=O)[C@H](CC(=O)O)NC(=O)[C@@H](NC(=O)[C@H](Cc2ccccc2)NC(C)=O)[C@@H](C)CC)CCCCCCC=CCCC[C@@](C)(C(=O)N[C@@H](CCCC)C(=O)N[C@@H](C)C(=O)N[C@@H](CC(C)C)C(N)=O)NC(=O)[C@H]([C@@H](C)CC)NC(=O)[C@H](C(C)C)NC(=O)[C@H](CC(C)C)NC(=O)[C@H](CO)NC1=O [SP-199] (Ac-FIDEE[R8]L[Nle]SLVI[S5][Nle]AL-NH2; staple 6-13)	200 to 400	> 30	+ (<10: +)	++++ (≥30: ++++)
CC[C@H](C)[C@H](NC(=O)[C@H](CC(N)=O)NC(=O)[C@@H](NC(=O)[C@H](CCC(N)=O)NC(=O)[C@H](CC(=O)O)NC(=O)[C@H](CC(C)C)NC(=O)[C@H](C)NC(=O)[C@H](CCCNC(=N)N)NC(=O)[C@H](CC(C)C)NC(=O)[C@H](CC(C)C)NC(=O)[C@H](CCC(=O)O)NC(=O)[C@H](CCC(=O)O)NC(=O)CNC(=O)[C@H](CCC(N)=O)NC(=O)[C@H](CC(C)C)NC(=O)[C@H](CC(C)C)NC(C)=O)C(C)C)C(=O)N[C@@H](CC(=O)O)C(=O)N[C@@H](CCC(=O)O)C(=O)N[C@@]1(C)CCCC=CCCC[C@@](C)(C(=O)N[C@@H](CC(C)C)C(=O)N[C@H](C(=O)N[C@H](C(=O)N[C@@H](CCC(=O)O)C(=O)N[C@@H](CCSC)C(N)=O)[C@@H](C)CC)C(C)C)NC(=O)[C@H](CCSC)NC(=O)[C@H](CC(C)C)NC(=O)[C@H](C(C)C)NC1=O [SP-318] (Ac-LLQGEELLRALDQVNIDE[S5]VLM[S5]LVIEM-NH2; staple 19-23)	400 to 700	> 30	+ (<10: +)	++++ (≥30: ++++)

Continued, in another order:

IC50 [1] [nM]	EC50 [2] [µM]	Compound	18 h Avg % max inhibition at top conc (HIF Rptr-24 hrs normoxia) (μM) [2]	Viability 1% FBS AVG (MTT V3-24 hr Normoxia) (μM) [3]
200 to 400	> 30	CCCC[C@H](NC(=O)[C@H](CC(C)C)NC(=O)[C@@H](NC(=O)[C@H](CCC(=O)O)NC(=O)[C@H](CCC(=O)O)NC(=O)[C@H](CC(=O)O)NC(=O)[C@@H](NC(=O)[C@H](CC(N)=O)NC(=O)[C@@H](NC(=O)[C@H](CCC(N)=O)NC(=O)[C@H](CC(=O)O)NC(=O)[C@]1(C)CCCC=CCCC[C@](C)(NC(=O)[C@H](CCC(=O)O)NC(=O)[C@H](CCC(=O)O)NC(=O)CNC(=O)[C@H](CCC(N)=O)NC(=O)[C@H](CC(C)C)NC(=O)[C@H](CC(C)C)NC(C)=O)C(=O)N[C@@H](CC(C)C)C(=O)N[C@@H](CCCNC(=N)N)C(=O)N[C@@H](C)C(=O)N1)C(C)C)[C@@H](C)CC)C(C)C)C(=O)N[C@@]1(C)CCCC=CCCC[C@@](C)(C(=O)N[C@@H](CCCC)C(=O)NCC(N)=O)NC(=O)[C@H]([C@@H](C)CC)NC(=O)[C@H](C(C)C)NC(=O)[C@H](CC(C)C)NC1=O [SP-339] (Ac-LLQGEE[S5]LRA[S5]DQVNIDEEVL[Nle][S5]LVI[S5][Nle]G-NH2; staple 7-11, 23-27)	+ (<10: +)	++++ (≥30: ++++)
> 700	> 30	CC[C@H](C)[C@H](NC(=O)[C@H](CCCNC(=N)N)NC(=O)[C@H](CC(=O)O)NC(=O)[C@H](CC(C)C)NC(=O)[C@H](C)NC(=O)[C@H](CCSC)NC(=O)[C@]1(C)CCCC=CCCC[C@](C)(NC(=O)[C@H](CCSC)NC(=O)[C@H](CC(C)C)NC(=O)[C@@H](NC(=O)[C@H](CCCCN)NC(=O)[C@H](CCC(=O)O)NC(=O)[C@H](CC(N)=O)NC(=O)[C@@H](NC(=O)[C@H](Cc2ccccc2)NC(C)=O)[C@@H](C)CC)C(C)C)C(=O)N[C@@H](CC(C)C)C(=O)N[C@@H](C(C)C)C(=O)N[C@@H]([C@@H](C)CC)C(=O)N1)C(N)=O [SP-285] (Ac-FINEKVLM[S5]LVI[S5]MALDRI-NH2; staple 9-13)	+++ (≤25 but <50: +++)	++++ (≥30: ++++)
400 to 700	5 to 15	CCCC[C@H](NC(=O)[C@H](CCC(=O)O)NC(=O)[C@]1(C)CCCC=CCCCCCC[C@@](C)(NC(=O)[C@H](C)NC(=O)[C@H](CC(=O)O)NC(=O)[C@@H](NC(=O)[C@H](CC(N)=O)NC(=O)[C@@H](NC(=O)[C@H](CCC(N)=O)NC(=O)[C@]2(C)CCCC=CCCC[C@](C)(NC(=O)[C@H](CC(C)C)NC(=O)[C@H](CCC(=O)O)NC(=O)[C@H](CCC(=O)O)NC(=O)CNC(=O)[C@H](CCC(N)=O)NC(=O)[C@H](CC(C)C)NC(=O)[C@H](CC(C)C)NC(C)=O)C(=O)N[C@@H](CCCNC(=N)N)C(=O)N[C@@H](C)C(=O)N[C@@H](CC(C)C)C(=O)N2)C(C)C)[C@@H](C)CC)C(=O)N[C@@H](C(C)C)C(=O)N[C@@H](CC(C)C)C(=O)N[C@@H](CCCC)C(=O)N[C@@H](CO)C(=O)N[C@@H](CC(C)C)C(=O)N[C@@H](C(C)C)C(=O)N1)C(N)=O [SP-362] (Ac-LLQGEEL[S5]RAL[S5]QVNIDA[R8]VL[Nle]SLV[S5]E[Nle]-NH2; staple 8-12, 19-26)	++++ (≥50: ++++)	++++ (≥30: ++++)
